Experimental data from ChEMBL document CHEMBL3885861, “Open TG-GATES”.

Species on record: Rattus norvegicus
Assay: Open TG-GATES - Regimen: Single
Assay type: toxicity, organism-based, Sprague-Dawley
Set-up: regimen Single, gender Male, age 6 weeks
Conditions: in vivo, po, 50 mg/kg, route gavage, dose level High; for APTT / Bas / Eos / Fbg / Hb / Ht / Lym / MCH / MCHC / MCV / Mono / Neu / PT / Plat / RBC / Ret / WBC: tissue Blood; for LIVER: tissue Liver; for A/G / ALP / ALT / AST / BUN / CRE / Ca / Cl / DBIL / GLC / IP / K / LDH / Na / PL / RALB / TBIL / TC / TG / TP / gamma-GTP: tissue Plasma

Work on C=C(C)[C@H]1Cc2c(ccc3c2O[C@@H]2COc4cc(OC)c(OC)cc4[C@@H]2C3=O)O1 [ROTENONE] yielded a TERMINAL_BW (3 h) of 195.9 g, an APTT (3 h) of 15.9 s and a Bas (3 h) of 0%. It also gave an Eos (3 h) of 0.8%, a Fbg (3 h) of 204.8 mg/dL and a Hb (3 h) of 13.2 g/dL. It also gave a Ht (3 h) of 40.1%, a Lym (3 h) of 73.4% and an MCH (3 h) of 20.7 pg. The MCHC (3 h) was 32.8%, the MCV (3 h) was 63.1 fL and the Mono (3 h) was 9.2%. For the same compound, the Neu (3 h) was 17.4%, the PT (3 h) was 12.6 s and the Plat (3 h) was 124.2 x10_4/uL. It also gave an RBC (3 h) of 636.2 x10_4/ul, a Ret (3 h) of 8.8% and a WBC (3 h) of 89.8 x10_2/uL. It also gave an LIVER (3 h) of 8.5 g, an A/G (3 h) of 2.3 and an ALP (3 h) of 1894.6 IU/L. For the same compound, the ALT (3 h) was 39 IU/L, the AST (3 h) was 79.4 IU/L and the BUN (3 h) was 13.8 mg/dL. For the same compound, the CRE (3 h) was 0.4 mg/dL, the Ca (3 h) was 11.1 mg/dL and the Cl (3 h) was 103.6 meq/L. The DBIL (3 h) was 0.008 mg/dL, the GLC (3 h) was 182.2 mg/dL and the IP (3 h) was 8.9 mg/dL. The K (3 h) was 3.9 meq/L, the LDH (3 h) was 92.6 IU/L and the Na (3 h) was 140.6 meq/L. It also gave a PL (3 h) of 123.2 mg/dL, an RALB (3 h) of 3.7 g/dL and a TBIL (3 h) of 0.036 mg/dL. For the same compound, the TC (3 h) was 77.4 mg/dL, the TG (3 h) was 49.4 mg/dL and the TP (3 h) was 5.3 g/dL. The gamma-GTP (3 h) was 1 IU/L, the TERMINAL_BW (6 h) was 197.3 g and the APTT (6 h) was 16.8 s. The Bas (6 h) was 0%, the Eos (6 h) was 0% and the Fbg (6 h) was 213.4 mg/dL. It also gave a Hb (6 h) of 13.3 g/dL, a Ht (6 h) of 40.7% and a Lym (6 h) of 77.8%. For the same compound, the MCH (6 h) was 20.8 pg, the MCHC (6 h) was 32.7% and the MCV (6 h) was 63.7 fL. It also gave a Mono (6 h) of 6.6%, a Neu (6 h) of 15% and a PT (6 h) of 12.6 s. For the same compound, the Plat (6 h) was 136.6 x10_4/uL, the RBC (6 h) was 638.2 x10_4/ul and the Ret (6 h) was 9.1%. The WBC (6 h) was 84.6 x10_2/uL, the LIVER (6 h) was 8.2 g and the A/G (6 h) was 2.3. The ALP (6 h) was 1068.4 IU/L, the ALT (6 h) was 41.2 IU/L and the AST (6 h) was 75 IU/L. For the same compound, the BUN (6 h) was 11.4 mg/dL, the CRE (6 h) was 0.4 mg/dL and the Ca (6 h) was 11.3 mg/dL. The Cl (6 h) was 103.8 meq/L, the DBIL (6 h) was 0.01 mg/dL and the GLC (6 h) was 185.8 mg/dL. It also gave an IP (6 h) of 9.9 mg/dL, a K (6 h) of 3.9 meq/L and an LDH (6 h) of 96 IU/L. For the same compound, the Na (6 h) was 140.6 meq/L, the PL (6 h) was 145.2 mg/dL and the RALB (6 h) was 3.7 g/dL. It also gave a TBIL (6 h) of 0.044 mg/dL, a TC (6 h) of 84.8 mg/dL and a TG (6 h) of 45.6 mg/dL. The TP (6 h) was 5.4 g/dL, the gamma-GTP (6 h) was 0.2 IU/L and the TERMINAL_BW (9 h) was 196.2 g. The APTT (9 h) was 16.7 s, the Bas (9 h) was 0% and the Eos (9 h) was 0.6%. It also gave a Fbg (9 h) of 221.4 mg/dL, a Hb (9 h) of 13 g/dL and a Ht (9 h) of 39.5%. For the same compound, the Lym (9 h) was 82.2%, the MCH (9 h) was 21.4 pg and the MCHC (9 h) was 33%. The MCV (9 h) was 64.8 fL, the Mono (9 h) was 4.6% and the Neu (9 h) was 12.6%. It also gave a PT (9 h) of 12.6 s, a Plat (9 h) of 137 x10_4/uL and an RBC (9 h) of 610 x10_4/ul. The Ret (9 h) was 8.7%, the WBC (9 h) was 86.6 x10_2/uL and the LIVER (9 h) was 8 g. The A/G (9 h) was 2.3, the ALP (9 h) was 1128.2 IU/L and the ALT (9 h) was 30.6 IU/L. For the same compound, the AST (9 h) was 66.8 IU/L, the BUN (9 h) was 11.8 mg/dL and the CRE (9 h) was 0.4 mg/dL. For the same compound, the Ca (9 h) was 11 mg/dL, the Cl (9 h) was 104.2 meq/L and the DBIL (9 h) was 0.01 mg/dL. It also gave a GLC (9 h) of 171.2 mg/dL, an IP (9 h) of 10.2 mg/dL and a K (9 h) of 4.1 meq/L. For the same compound, the LDH (9 h) was 105 IU/L, the Na (9 h) was 139.6 meq/L and the PL (9 h) was 135.8 mg/dL. For the same compound, the RALB (9 h) was 3.8 g/dL, the TBIL (9 h) was 0.048 mg/dL and the TC (9 h) was 87.6 mg/dL. It also gave a TG (9 h) of 34.8 mg/dL, a TP (9 h) of 5.4 g/dL and a gamma-GTP (9 h) of 1 IU/L. The TERMINAL_BW (24 h) was 202.8 g, the APTT (24 h) was 16.4 s and the Bas (24 h) was 0%. It also gave an Eos (24 h) of 0.8%, a Fbg (24 h) of 198.6 mg/dL and a Hb (24 h) of 13.3 g/dL. It also gave a Ht (24 h) of 40.7%, a Lym (24 h) of 83.8% and an MCH (24 h) of 20.6 pg. For the same compound, the MCHC (24 h) was 32.7%, the MCV (24 h) was 63 fL and the Mono (24 h) was 4.6%. The Neu (24 h) was 10.8%, the PT (24 h) was 12.4 s and the Plat (24 h) was 128.6 x10_4/uL. The RBC (24 h) was 648.4 x10_4/ul, the Ret (24 h) was 7.3% and the WBC (24 h) was 67.6 x10_2/uL. For the same compound, the LIVER (24 h) was 8.4 g, the A/G (24 h) was 2.5 and the ALP (24 h) was 1301.4 IU/L. For the same compound, the ALT (24 h) was 25.8 IU/L, the AST (24 h) was 61.4 IU/L and the BUN (24 h) was 13.6 mg/dL. It also gave a CRE (24 h) of 0.4 mg/dL, a Ca (24 h) of 11.8 mg/dL and a Cl (24 h) of 104 meq/L. The DBIL (24 h) was 0.01 mg/dL, the GLC (24 h) was 185.8 mg/dL and the IP (24 h) was 8.3 mg/dL. It also gave a K (24 h) of 4.1 meq/L, an LDH (24 h) of 66.4 IU/L and a Na (24 h) of 140.2 meq/L. The PL (24 h) was 128 mg/dL, the RALB (24 h) was 4 g/dL and the TBIL (24 h) was 0.042 mg/dL. The TC (24 h) was 74.2 mg/dL, the TG (24 h) was 46.4 mg/dL and the TP (24 h) was 5.5 g/dL. The gamma-GTP (24 h) was 0.6 IU/L.
